As a reminder, the pEC50 is the EC50 on a negative log10 scale, so that one unit is a factor of ten. Usually CC50 stands for the concentration at which the toxic effect on the cells reaches its halfway point. Usually pIC50 stands for the negative decadic logarithm of the IC50, by convention in mol/L.

These results are taken from PMC9272661 (Antiviral Research, 2022).

pEC50, pIC50: −log10 of the molar value. “Also recorded” adds a separate entry of the source. Like-named read-outs stand apart in the source and are kept apart here.

In data set [1] the test system is SARS-CoV-2. In words: microbe, parasite or virus in culture. The format is cell-based, SARS-CoV-2 (strain 2019-nCoV/USA_WA1/2020).
Data set [2] is described as follows: Cytotoxicity. The format is cell-based.
Data set [3] deals with 3CLpro. The note with it: read-out: reported IC50; reported value, no reference given; cited from earlier work.
Data set [4] has as its system SARS-CoV. The note with it: cited from earlier work.
Data set [5] concerns the target SARS-CoV 3CLpro (Severe acute respiratory syndrome coronavirus, UniProt P0C6X7). The format is biochemical.
Setting [6] is: Severe acute respiratory syndrome coronavirus 2, 48 h.

`CC(C)(C)NC(=O)N[C@H](C(=O)N1C[C@H]2[C@@H]([C@H]1C(=O)NC(CC1CCC1)C(=O)C(N)=O)C2(C)C)C(C)(C)C` (stereo partly drawn) [Boceprevir, boceprevir, reference compound]: in data set [1] (Severe acute respiratory syndrome coronavirus 2, read-out: SARS-CoV-2 3CLpro EC50, Table 2, cell-based antiviral assay, SARS-CoV-2 viral replication), the pEC50 was 4.81.

On to `O=C(Nc1ccc([N+](=O)[O-])cc1Cl)c1cccc([N+](=O)[O-])c1O` [JMX0207], for which the pEC50 in data set [1] is 5.91.

In the case of `CC(C)[C@H](NC(=O)c1cc(Cl)ccc1O)C(=O)Nc1ccc([N+](=O)[O-])cc1Cl` [JMX0281], the pEC50 in data set [1] is 5.68.

In data set [1], `O=C(NC(Cc1ccccc1)C(=O)Nc1ccc([N+](=O)[O-])cc1Cl)c1cc(Cl)ccc1O` (stereo not drawn) [JMX0285] showed a pEC50 of 5.52.

The compound `Cl.NCCOc1ccc(Cl)cc1C(=O)NCC(=O)Nc1ccc([N+](=O)[O-])cc1Cl` [JMX0286, 2-(2-Aminoethoxy)-5-chloro-N-(2-((2-chloro-4-nitrophenyl)amino)-2-oxoethyl)benzamide hydrochloride] showed a CC50 at 48 h in data set [2] of 3.78 µM. In data set [1] (setting [6]), this compound had a pEC50 of 5.65.

Consider `CC(C)(C)OC(=O)NCCOc1ccc(Cl)cc1C(=O)NCC(=O)Nc1ccc([N+](=O)[O-])cc1Cl` [JMX0301, Tert-Butyl (2-(4-chloro-2-((2-((2-chloro-4-nitrophenyl)amino)-2-oxoethyl)carbamoyl)phenoxy)ethyl)carbamate], for which the “SARS-CoV-2 3CLpro EC50” value in data set [1] (Table 2, cell-based antiviral assay, SARS-CoV-2 viral replication) was “No Dose response”.

On to `O=C(Nc1ccc(C(F)(F)F)cc1Cl)c1cccc([N+](=O)[O-])c1O` [JMX0310, N-(2-Chloro-4-(trifluoromethyl)phenyl)-2-hydroxy-3-nitrobenzamide], for which, in data set [2], half-maximal cytotoxicity (CC50 at 48 h) was put at 10.1 µM. In data set [1] (setting [6]), the pEC50 is 5.62.

Consider `O=C(Nc1cc(F)cc(C(F)(F)F)c1)c1cc(Cl)ccc1O` [JMX0312], for which the pEC50 in data set [1] was 5.95.

As to `O=C(Nc1cc(F)cc(C(F)(F)F)c1)c1cccc([N+](=O)[O-])c1O` [JMX0317, N-(3-Fluoro-5-(trifluoromethyl)phenyl)-2-hydroxy-3-nitrobenzamide], the CC50 at 48 h in data set [2] is 11.7 µM. Also, the negative logarithm of the EC50 (pEC50) in data set [1] (setting [6]) was 5.40.

`O=C(Nc1ccc(F)c(F)c1)c1cc(Cl)ccc1O` [JMX0321] showed a pEC50 in data set [1] of 5.93.

In turn, `O=C(Nc1cc(C(F)(F)F)cc(C(F)(F)F)c1)c1cccc([N+](=O)[O-])c1O` [JMX0330, N-(3,5-Bis(trifluoromethyl)phenyl)-2-hydroxy-3-nitrobenzamide] had a CC50 at 48 h in data set [2] of 10.2 µM. In data set [1] (setting [6]), this compound showed a pEC50 of 6.30. The EC50 entry in data set [1] (listed as JMX0320) is reported as “sub-micromolar”.

Compound `CC(C)C[C@H](NC(=O)c1cc(Cl)ccc1O)C(=O)Nc1ccc([N+](=O)[O-])cc1Cl` [JMX0671] gave a pEC50 in data set [1] of 5.81.

For `CC(C)[C@H](NC(=O)c1cc(Cl)ccc1O)C(=O)Nc1ccc(C(F)(F)F)cc1Cl` [JMX0672], the pEC50 in data set [1] is 5.72.

`CCC(C)[C@H](NC(=O)c1cc(Cl)ccc1O)C(=O)Nc1ccc([N+](=O)[O-])cc1Cl` (stereo partly drawn) [JMX0673]: the pEC50 in data set [1] was 5.76.

As for `C[C@H](NC(=O)c1cc(Cl)ccc1O)C(=O)Nc1ccc([N+](=O)[O-])cc1Cl` [JMX0674], the pEC50 in data set [1] was 5.01.

As for `CC(C)[C@H](NC(=O)c1cc(Cl)ccc1O)C(=O)Nc1cc(C(F)(F)F)cc(C(F)(F)F)c1` [JMX0679], the pEC50 in data set [1] is 5.60.

On to `CC(C)[C@H](NC(=O)c1cc(Cl)ccc1O)C(=O)Nc1cc(F)cc(C(F)(F)F)c1` [JMX0680], for which the pEC50 in data set [1] is 5.34.

`CC(C)[C@H](NC(=O)c1cc(Cl)ccc1O)C(=O)Nc1ccc(F)c(F)c1` [JMX0681] had a pEC50 in data set [1] of 5.01.

`CC(C)(C)NC(=O)[C@@H](c1cccnc1)N(C(=O)c1ccco1)c1ccc(C(C)(C)C)cc1` [ML-188]: the pIC50 in data set [3] is about 5.70.

`O=C(Nc1ccc([N+](=O)[O-])cc1Cl)c1cc(Cl)ccc1O` [niclosamide]: the “Concentration suppressing the cytopathic effect (CPE) of SARS-CoV” value in data set [4] was 1 µM. For the same compound, the pEC50 in data set [4] (read-out: EC50 of SARS-CoV replication) is over 7.00. The “Inhibitory activity against SARS-CoV 3CLpro” value in data set [5] is recorded as “does not inhibit; also recorded: no obvious inhibitory activity”.
